Laboratory results from publication PMC7913927, “Leishmanicidal Activity of Betulin Derivatives in Leishmania amazonensis; Effect on Plasma and Mitochondrial Membrane Potential, and Macrophage Nitric Oxide and Superoxide Production” (Microorganisms, 2021).

Legend:
[1] = tested on: VE2000MM intracellular amastigotes in J774.1 macrophages; assay: Macrophage-amastigote model, patient isolate VE2000MM; assay type: cell-based, Leishmania amazonensis
Description: (§1) We used a previously described methodology, with some modifications. Macrophage monolayers, grown in RMPIc medium, for 3 days, were detached from the bottom of the culture chamber, by physical treatment (low temperature and light strokes). Obtained macrophages were seeded in flat-bottom 96-well culture plates, at a density of 2 × 10^5 cells mL^−1 (40,000 macrophages/well), in a final volume of 200 µL. Plates were incubated for 2 h, and the supernatant was discarded to remove non-adhered macrophages. Medium was replaced with stationary-phase promastigotes suspended in 200 µL of RPMIc (2 × 10^6 parasites mL^−1, 400,000 parasites/well), at a macrophage: parasite ratio 1:10 [40]. The plates were incubated for 4 h. Afterwards the medium was replaced with fresh RPMIc and increasing concentrations of compounds or drugs tested were applied, in volumes of 2 µL, according to the different treatment groups. Plates were kept for 72 h, at 37 °C and 5% CO2. The medium was discarded and the wells were washed twice with PBS. Next, a Giemsa staining was performed in situ. It consisted of adding 200 µL of methanol/well, incubating for 5 min, discarding the fixative, and letting it dry at room temperature. Later, the Giemsa solution (10% in PBS w/v, 200 µL/well) was added, incubated for 10 min, and washed with PBS, allowing it to dry. Finally, the bottom of the plates was detached by percussion and the circular bottoms (wells) were fixed to slides with Permount synthetic resin, for later evaluation (Alcazar W., manuscript in preparation). Cell counting was performed with a 100× immersion objective. A minimum of 200 random macrophages were examined. The percentage of infected macrophages (% infection) and the average number of amastigotes present in infected macrophages (amastigotes) were determined. […] The infection rate represents the number of intracellular amastigotes per 100 macrophages evaluated. Additionally, the GI50 for the decrease in the infection rate was calculated. At least three independent experiments were performed. The effect of amphotericin-B (AmB) [Sigma-Aldrich, (St. Louis, MO, USA)] was included as positive control of the assay.

[2] = Cytotoxicity (Alamar Blue) in macrophages; assay type: cell-based, murine; settings: mouse, J774.1 macrophages
Description: In flat-bottom 96-well culture plates, J774.1 macrophages were seeded at a cell density of 5 × 10^4 mL^−1 (10,000 macrophages/well) in 200 µL of RPMIc. After 24 h at 37 °C, 5% CO2, medium was replaced by 180 µL of RPMIc, without phenol red, and increasing concentrations of test compounds in 2-µL volumes. […] At least two independent experiments were performed in duplicate. Based on the inhibition of cell growth caused by the tested compounds, the percentage of growth inhibition compared to untreated cells was calculated. […] Selectivity indices (SI) were calculated, dividing the macrophage CC50 by the parasites GI50 (SI = CC50/GI50).

[3] = tested on: L. (L.) amazonensis LTB0016 promastigotes; assay: Promastigote in vitro susceptibility (Alamar Blue/resazurin), reference strain; assay type: cell-based, Leishmania amazonensis; settings: Leishmania amazonensis; LTB0016 promastigotes, 72 h; read-out: Promastigote (GI50) mean
Description: The fluorometric method of Alamar Blue® (resazurin) was used. Promastigotes grown in biphasic agar-blood medium, at the exponential phase of growth, were seeded in flat-bottom 96-well culture plates, at a cell density of 1 × 10^6 parasites mL^−1 (200,000 parasites/well), in 180 µL of RPMIc without phenol red. Subsequently, either a sole concentration (50 µM), or increasing concentrations of compounds or drugs were applied, according to each treatment group, in volumes of 2 µL. Plates were kept at 26 °C, in a humid chamber, for 72 h. […] Live parasites are metabolically active and capable of reducing non-fluorescent resazurin (blue) to fluorescent resorufin (red). Fluorescence intensity is directly proportional to the number of viable cells. […] At least two independent experiments were performed in duplicate. The effect of trivalent antimonial [SbIII, potassium antimonyl tartrate trihydrate, Sigma-Aldrich, (St. Louis, MO, USA)] was included as positive control of the assay.

[4] = tested on: VE98MR intracellular amastigotes in J774.1 macrophages; assay: Macrophage-amastigote model, patient isolate VE98MR; assay type: cell-based, Leishmania amazonensis
Description: as §1

[5] = tested on: LTB0016 intracellular amastigotes in J774.1 macrophages; assay: Macrophage-amastigote model, reference strain; assay type: cell-based, Leishmania amazonensis
Description: as §1

[6] = J774.1 CC50 / intracellular amastigote GI50, Table 2

Question: Which results are given for `C[C@@H]1[C@H](O)[C@@H](C)/C=C/C=C/C=C/C=C/C=C/C=C/C=C/[C@H](O[C@@H]2O[C@H](C)[C@@H](O)[C@H](N)[C@@H]2O)C[C@@H]2O[C@](O)(C[C@@H](O)C[C@@H](O)[C@H](O)CC[C@@H](O)C[C@@H](O)CC(=O)O[C@H]1C)C[C@H](O)[C@H]2C(=O)O` [AmB, amphotericin-B, reference compound]?
Answer: SI (CC50/GI50) VE2000MM [1, 6]: >125; GI50 ([1]; Leishmania amazonensis, J774.1, intracellular amastigotes, 72 h, Table 2, read-out: GI50 (µM) VE2000MM): 0.08 µM; Growth (%) Exp1 %Control ([1]; VE2000MM, dose 0.10 µM, Exp1): 7.30%; Growth (%) Exp1 A/100MØ ([1]; VE2000MM, dose 0.10 µM, Exp1): 18.04; Growth (%) Exp1 A/MØ ([1]; VE2000MM, dose 0.10 µM, Exp1): 1.70; Growth (%) Exp1 Infección ([1]; VE2000MM, dose 0.10 µM, Exp1): 10.61%; Growth (%) Exp2 %Control ([1]; VE2000MM, dose 0.10 µM, Exp2): 9.84%; Growth (%) Exp2 A/100MØ ([1]; VE2000MM, dose 0.10 µM, Exp2): 23.78; Growth (%) Exp2 A/MØ ([1]; VE2000MM, dose 0.10 µM, Exp2): 2.17; Growth (%) Exp2 Infección ([1]; VE2000MM, dose 0.10 µM, Exp2): 10.96%; Growth (%) Exp3 %Control ([1]; VE2000MM, dose 0.10 µM, Exp3): 7.62%; Growth (%) Exp3 A/100MØ ([1]; VE2000MM, dose 0.10 µM, Exp3): 17.22; Growth (%) Exp3 A/MØ ([1]; VE2000MM, dose 0.10 µM, Exp3): 2.00; Growth (%) Exp3 Infección ([1]; VE2000MM, dose 0.10 µM, Exp3): 8.61%; Average A/100MØ ([1]; VE2000MM, dose 0.10 µM, average of Exp1-3): 19.68; CC50 at 72 h [2]: > 10000 nM; GI50 [3]: 68 nM; SI (CC50/GI50) VE98MR [4, 6]: >136; GI50 ([4]; Leishmania amazonensis, J774.1, intracellular amastigotes, 72 h, Table 2, read-out: GI50 (µM) VE98MR): 0.073 µM; Growth (%) Exp1 %Control ([4]; VE98MR, dose 0.10 µM, Exp1): 10.60%; Growth (%) Exp1 A/100MØ ([4]; VE98MR, dose 0.10 µM, Exp1): 17.06; Growth (%) Exp1 A/MØ ([4]; VE98MR, dose 0.10 µM, Exp1): 1.26; Growth (%) Exp1 Infección ([4]; VE98MR, dose 0.10 µM, Exp1): 13.54%; Growth (%) Exp2 %Control ([4]; VE98MR, dose 0.10 µM, Exp2): 2.71%; Growth (%) Exp2 A/100MØ ([4]; VE98MR, dose 0.10 µM, Exp2): 5.60; Growth (%) Exp2 A/MØ ([4]; VE98MR, dose 0.10 µM, Exp2): 1.16; Growth (%) Exp2 Infección ([4]; VE98MR, dose 0.10 µM, Exp2): 4.83%; Growth (%) Exp3 %Control ([4]; VE98MR, dose 0.10 µM, Exp3): 6.21%; Growth (%) Exp3 A/100MØ ([4]; VE98MR, dose 0.10 µM, Exp3): 15.40; Growth (%) Exp3 A/MØ ([4]; VE98MR, dose 0.10 µM, Exp3): 2.00; Growth (%) Exp3 Infección ([4]; VE98MR, dose 0.10 µM, Exp3): 7.70%; Average A/100MØ ([4]; VE98MR, dose 0.10 µM, average of Exp1-3): 12.69; SI (CC50/GI50) LTB0016 [5, 6]: >500; Growth (%) Exp1 Infección ([5]; LTB0016, 0.10 µM, 72 h, Exp1, % infected macrophages): 12.89%; Growth (%) Exp1 A/MØ ([5]; LTB0016, 0.10 µM, 72 h, Exp1, amastigotes per infected macrophage): 2.10; Growth (%) Exp1 A/100MØ ([5]; LTB0016, 0.10 µM, 72 h, Exp1, infection index): 27.07; Growth (%) Exp1 %Control ([5]; LTB0016, 0.10 µM, 72 h, Exp1, infection index vs DMSO): 10.32%; Growth (%) Exp2 Infección ([5]; LTB0016, 0.10 µM, 72 h, Exp2, % infected macrophages): 13.33%; Growth (%) Exp2 A/MØ ([5]; LTB0016, 0.10 µM, 72 h, Exp2, amastigotes per infected macrophage): 1.38; Growth (%) Exp2 A/100MØ ([5]; LTB0016, 0.10 µM, 72 h, Exp2, infection index): 18.40; Growth (%) Exp2 %Control ([5]; LTB0016, 0.10 µM, 72 h, Exp2, infection index vs DMSO): 8.65%; Growth (%) Exp3 Infección ([5]; LTB0016, 0.10 µM, 72 h, Exp3, % infected macrophages): 8.08%; Growth (%) Exp3 A/MØ ([5]; LTB0016, 0.10 µM, 72 h, Exp3, amastigotes per infected macrophage): 1.33; Growth (%) Exp3 A/100MØ ([5]; LTB0016, 0.10 µM, 72 h, Exp3, infection index): 10.75; Growth (%) Exp3 %Control ([5]; LTB0016, 0.10 µM, 72 h, Exp3, infection index vs DMSO): 6.05%; Average A/100MØ ([5]; LTB0016, 0.10 µM, 72 h, average of Exp1-3): 18.74; GI50 ([5]; Leishmania amazonensis, J774.1, intracellular amastigotes, 72 h, Table 2, read-out: GI50 (µM) LTB0016): 0.02 µM
